Results on 13 molecules are retold here after patent US20260125360A1, “HERBICIDAL IMIDAZOLE COMPOUNDS” (SYNGENTA CROP PROTECTION AG, priority 2022, published 2026).

Common to all, as to format: in vivo
Common to all, as to details: 250 g/ha, evaluated after 13 days

In assay [1] the test system is Ipomoea hederacea (IPOHE). Kind of assay: Post-emergence herbicide glasshouse test. A digest of the protocol: (§1)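 Percentage plant damage, rated on a five-point scale (5=81-100%; 1=0-20%), is assessed 13 days after treatment. Sprays are applied at 250 g/ha unless otherwise stated, one day after sowing for pre-emergence and eight days after for post-emergence, from acetone/water (50:50) containing 0.5% Tween 20.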

Assay [2] relates to Amaranthus palmeri (AMAPA). Kind of assay: Post-emergence herbicide glasshouse test. A digest of the protocol:
as §1

The test system of assay [3] is Amaranthus retoflexus (AMARE). Kind of assay: Post-emergence herbicide glasshouse test. A digest of the protocol:
as §1

The test system of assay [4] is Echinochloa crus-galli (ECHCG). Kind of assay: Post-emergence herbicide glasshouse test. The method in brief: as §1
The subject of assay [5] is Ipomoea hederacea (IPOHE). In words: Pre-emergence herbicide glasshouse test. The method in brief: as §1
Assay [6] relates to Amaranthus palmeri (AMAPA). In words: Pre-emergence herbicide glasshouse test. A digest of the protocol:
as §1

For assay [7], the system named is Amaranthus retoflexus (AMARE). In words: Pre-emergence herbicide glasshouse test. The method in brief:
as §1

Assay [8] deals with Echinochloa crus-galli (ECHCG). Kind of assay: Pre-emergence herbicide glasshouse test. A digest of the protocol: as §1

In the case of `Cn1nnc(Cn2cc(C(F)(F)F)nc2-c2ccc(Cl)nc2)n1` [Compound 1.109], the “percentage damage caused to the plant, IPOHE (five-point scale)” value in assay [1] and in assay [5] was 5 (5=81-100%) in each case. For the same molecule, the “percentage damage caused to the plant, AMAPA (five-point scale)” value in assay [2] and in assay [6] was 5 (5=81-100%) throughout. Also, the “percentage damage caused to the plant, AMARE (five-point scale)” value in assay [3] and in assay [7] was 5 (5=81-100%) each time. In addition, the “percentage damage caused to the plant, ECHCG (five-point scale)” value in assay [4] is 1 (1=0-20%); in assay [8] it was 5 (5=81-100%).

As to `Cn1cnc(Cn2cc(C(F)F)nc2-c2cnc(Cl)c(F)c2)n1` [Compound 1.015, 2-chloro-5-[4-(difluoromethyl)-1-[(1-methyl-1,2,4-triazol-3-yl)methyl]imidazol-2-yl]-3-fluoro-pyridine], the “percentage damage caused to the plant, IPOHE (five-point scale)” value in assay [1] and in assay [5] was 5 (5=81-100%) in each case. The “percentage damage caused to the plant, AMAPA (five-point scale)” value in assay [2] and in assay [6] was 5 (5=81-100%) throughout. Also, the “percentage damage caused to the plant, AMARE (five-point scale)” value in assay [3] and in assay [7] was 5 (5=81-100%) each time. For the same molecule, the “percentage damage caused to the plant, ECHCG (five-point scale)” value in assay [4] is given as 3 (3=41-60%); in assay [8], 4 (4=61-80%).

Regarding `Cc1cnc(Cn2cc(C(F)(F)F)nc2-c2ccc(Cl)nc2)s1` [Compound 1.034], the “percentage damage caused to the plant, IPOHE (five-point scale)” value in assay [1] was 4 (4=61-80%); in assay [5], 5 (5=81-100%). For the same molecule, the “percentage damage caused to the plant, AMAPA (five-point scale)” value in assay [2] and in assay [6] was 5 (5=81-100%) throughout. Further, the “percentage damage caused to the plant, AMARE (five-point scale)” value in assay [3] and in assay [7] was 5 (5=81-100%) each time. Also, the “percentage damage caused to the plant, ECHCG (five-point scale)” value in assay [4] and in assay [8] was 5 (5=81-100%) in each case.

As for `Cc1cc(Cn2cc(C(F)(F)F)nc2-c2ccc(Cl)nc2)nn1C` [Compound 1.044], the “percentage damage caused to the plant, IPOHE (five-point scale)” value in assay [1] is recorded as 4 (4=61-80%); in assay [5], 1 (1=0-20%). The “percentage damage caused to the plant, AMAPA (five-point scale)” value in assay [2] is recorded as 4 (4=61-80%); in assay [6] it was 5 (5=81-100%). The “percentage damage caused to the plant, AMARE (five-point scale)” value in assay [3] is listed as 4 (4=61-80%); in assay [7], 5 (5=81-100%). For the same molecule, the “percentage damage caused to the plant, ECHCG (five-point scale)” value in assay [4] and in assay [8] was 1 (1=0-20%) throughout.

Regarding `Cc1noc(C)c1Cn1cc(C(F)(F)F)nc1-c1ccc(Cl)nc1` [Compound 1.141], the “percentage damage caused to the plant, IPOHE (five-point scale)” value in assay [1] and in assay [5] was 1 (1=0-20%) in each case. Further, the “percentage damage caused to the plant, AMAPA (five-point scale)” value in assay [2] and in assay [6] was 1 (1=0-20%) throughout. In addition, the “percentage damage caused to the plant, AMARE (five-point scale)” value in assay [3] and in assay [7] was 1 (1=0-20%) each time. The “percentage damage caused to the plant, ECHCG (five-point scale)” value in assay [4] and in assay [8] was 1 (1=0-20%) in each case.

Consider `Cc1cc(Cn2cc(C(F)(F)F)nc2-c2cnc(F)c(Cl)c2)ns1` [Compound 1.154], for which the “percentage damage caused to the plant, IPOHE (five-point scale)” value in assay [1] was 4 (4=61-80%); in assay [5] it was 5 (5=81-100%). For the same molecule, the “percentage damage caused to the plant, AMAPA (five-point scale)” value in assay [2] and in assay [6] was 5 (5=81-100%) in each case. Also, the “percentage damage caused to the plant, AMARE (five-point scale)” value in assay [3] and in assay [7] was 5 (5=81-100%) throughout. For the same molecule, the “percentage damage caused to the plant, ECHCG (five-point scale)” value in assay [4] and in assay [8] was 5 (5=81-100%) in each case.

`CN(C)S(=O)(=O)c1cc(Cn2cc(C(F)(F)F)nc2-c2ccc(Cl)nc2)co1` [Compound 1.144]: the “percentage damage caused to the plant, IPOHE (five-point scale)” value in assay [1] and in assay [5] was 1 (1=0-20%) in each case. Besides, the “percentage damage caused to the plant, AMAPA (five-point scale)” value in assay [2] and in assay [6] was 1 (1=0-20%) throughout. Moreover, the “percentage damage caused to the plant, AMARE (five-point scale)” value in assay [3] and in assay [7] was 1 (1=0-20%) in each case. For the same molecule, the “percentage damage caused to the plant, ECHCG (five-point scale)” value in assay [4] and in assay [8] was 1 (1=0-20%) throughout.

On to `Cc1nnc(Cn2cc(C(F)(F)F)nc2-c2ccc(F)c(F)c2)o1` [Compound 1.183], for which the “percentage damage caused to the plant, IPOHE (five-point scale)” value in assay [1] is 4 (4=61-80%); in assay [5] it was 5 (5=81-100%). Also, the “percentage damage caused to the plant, AMAPA (five-point scale)” value in assay [2] and in assay [6] was 5 (5=81-100%) each time. For the same molecule, the “percentage damage caused to the plant, AMARE (five-point scale)” value in assay [3] and in assay [7] was 5 (5=81-100%) throughout. Besides, the “percentage damage caused to the plant, ECHCG (five-point scale)” value in assay [4] was 2 (2=21-40%); in assay [8] it was 3 (3=41-60%).

For the molecule `Cn1nc(Cn2cc(C(F)(F)F)nc2-c2ccc(Cl)nc2)cc1Cl` [Compound 1.084], the figures for the “percentage damage caused to the plant, IPOHE (five-point scale)” value in assay [1] and in assay [5] were 4 (4=61-80%) and 5 (5=81-100%), respectively. The “percentage damage caused to the plant, AMAPA (five-point scale)” value in assay [2] is 4 (4=61-80%); in assay [6], 5 (5=81-100%). Moreover, the entries for the “percentage damage caused to the plant, AMARE (five-point scale)” value in assay [3] and in assay [7] were 4 (4=61-80%) and 5 (5=81-100%), respectively. Also, the entries for the “percentage damage caused to the plant, ECHCG (five-point scale)” value in assay [4] and in assay [8] were 1 (1=0-20%) and 3 (3=41-60%), respectively.

With `Cc1cc(Cn2cc(C#N)nc2-c2cnc(Cl)c(F)c2)no1` [Compound 1.185], the “percentage damage caused to the plant, IPOHE (five-point scale)” value in assay [1] is 3 (3=41-60%); in assay [5] it was 4 (4=61-80%). In addition, the “percentage damage caused to the plant, AMAPA (five-point scale)” value is on record as 4 (4=61-80%) in assay [2] and 5 (5=81-100%) in assay [6]. The “percentage damage caused to the plant, AMARE (five-point scale)” value is 4 (4=61-80%) in assay [3] and 5 (5=81-100%) in assay [7]. Moreover, the “percentage damage caused to the plant, ECHCG (five-point scale)” value in assay [4] is listed as 1 (1=0-20%); in assay [8], 3 (3=41-60%).

As to `Fc1ccc(-c2nc(C(F)(F)F)cn2Cc2ccc(Cl)s2)cc1F` [Compound 1.173], the “percentage damage caused to the plant, IPOHE (five-point scale)” value in assay [1] and in assay [5] was 1 (1=0-20%) throughout. Further, the “percentage damage caused to the plant, AMAPA (five-point scale)” value in assay [2] is 4 (4=61-80%); in assay [6] it was 5 (5=81-100%). The “percentage damage caused to the plant, AMARE (five-point scale)” value in assay [3] and in assay [7] was 5 (5=81-100%) in each case. For the same molecule, the entries for the “percentage damage caused to the plant, ECHCG (five-point scale)” value in assay [4] and in assay [8] were 2 (2=21-40%) and 1 (1=0-20%), respectively.

Regarding `FC(F)(F)c1cn(Cc2nc(C3CC3)no2)c(-c2ccc(Cl)nc2)n1` [Compound 1.138], the “percentage damage caused to the plant, IPOHE (five-point scale)” value in assay [1] and in assay [5] was 2 (2=21-40%) throughout. In addition, the “percentage damage caused to the plant, AMAPA (five-point scale)” value in assay [2] is recorded as 1 (1=0-20%); in assay [6] it was 3 (3=41-60%). The “percentage damage caused to the plant, AMARE (five-point scale)” value is listed as 1 (1=0-20%) in assay [3] and 3 (3=41-60%) in assay [7]. Further, the “percentage damage caused to the plant, ECHCG (five-point scale)” value in assay [4] and in assay [8] was 1 (1=0-20%) in each case.

As for `FC(F)(F)c1cn(Cc2ccsn2)c(-c2ccc(Cl)nc2)n1` [Compound 1.077], the “percentage damage caused to the plant, IPOHE (five-point scale)” value in assay [1] and in assay [5] was 1 (1=0-20%) in each case. Moreover, the “percentage damage caused to the plant, AMAPA (five-point scale)” value in assay [2] is 4 (4=61-80%); in assay [6], 5 (5=81-100%). The “percentage damage caused to the plant, AMARE (five-point scale)” value in assay [3] is 4 (4=61-80%); in assay [7], 5 (5=81-100%). Also, the “percentage damage caused to the plant, ECHCG (five-point scale)” value in assay [4] and in assay [8] was 1 (1=0-20%) in each case.
